This assay has as its target Human eIF4E (Homo sapiens (Human), UniProt P06730). In words: Human eIF4E/4G binding assay (time-resolved fluorescence, HH-eIF4E and biotin-labeled 4G2 peptide). The following applies: inhibition of binding of His-tagged human eIF4E (aa 28-217) to biotin-labeled 4G2 peptide.

Chain of Human eIF4E (P06730 28-217): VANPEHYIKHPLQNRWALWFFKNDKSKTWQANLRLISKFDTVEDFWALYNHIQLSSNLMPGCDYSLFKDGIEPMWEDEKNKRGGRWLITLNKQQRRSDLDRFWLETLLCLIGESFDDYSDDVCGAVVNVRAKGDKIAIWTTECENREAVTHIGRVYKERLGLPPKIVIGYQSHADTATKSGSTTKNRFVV

Compound `Cc1cc(C(N)=O)ccc1-c1ccc(-c2nc(-c3ccc(Cl)c(Cl)c3)cs2)cc1C(=O)O` [Example 78, 4′-Carbamoyl-4-[4-(3,4-dichloro-phenyl)-thiazol-2-yl]-2′-methyl-biphenyl-2-carboxylic acid] had an IC50 of 1.9 µM.

In the case of `O=C(NCc1ccccc1F)c1ccc(-c2ccc(-c3nc(-c4ccc(Cl)c(Cl)c4)cs3)cc2C(=O)O)cc1` [Example 74, 4-[4-(3,4-Dichloro-phenyl)-thiazol-2-yl]-4′-(2-fluoro-benzylcarbamoyl)-biphenyl-2-carboxylic acid], the half-maximal inhibitory concentration (IC50) is 2.5 µM.

In turn, `O=C(O)c1cc(-c2nc(-c3cccc(Cl)c3)cs2)ccc1-c1ccccc1[N+](=O)[O-]` [Example 17, 4-[4-(3-Chloro-phenyl)-thiazol-2-yl]-2′-nitro-biphenyl-2-carboxylic acid] came in with an IC50 of 3.1 µM.

`CC(=O)c1ccc(-c2ccc(-c3nc(-c4ccc(Cl)c(Cl)c4)cs3)cc2C(=O)O)cc1` [Example 120, 4′-Acetyl-4-[4-(3,4-dichloro-phenyl)-thiazol-2-yl]-biphenyl-2-carboxylic acid] came in with a half-inhibitory concentration (IC50) of 3.8 µM.

`O=C(O)c1cc(-c2nc(-c3ccc(Cl)cc3Cl)cs2)ccc1-c1ccccc1[N+](=O)[O-]` [Example 10, 4-[4-(2,4-Dichloro-phenyl)-thiazol-2-yl]-2′-nitro-biphenyl-2-carboxylic acid] displayed an IC50 of 3.5 µM.

Consider `Cn1nccc1CNC(=O)c1ccc(-c2ccc(-c3nc(-c4ccc(Cl)c(Cl)c4)cs3)cc2C(=O)O)cc1` [Example 50, 4-[4-(3,4-Dichloro-phenyl)-thiazol-2-yl]-4′-[(2-methyl-2H-pyrazol-3-ylmethyl)-carbamoyl]-biphenyl-2-carboxylic acid], for which the IC50 worked out at 7.8 µM.

Take `O=C(O)c1ccc(-c2ccc(-c3nc(-c4ccc(Cl)c(Cl)c4)cs3)cc2C(=O)O)c(F)c1` [Example 121, 4-[4-(3,4-Dichloro-phenyl)-thiazol-2-yl]-2′-fluoro-biphenyl-2,4′-dicarboxylic acid]: the IC50 is 6.1 µM.

`O=C(O)c1cc(-c2nc(-c3ccc(Cl)c(Cl)c3)cs2)ccc1-c1ccc([N+](=O)[O-])cc1` [Example 45, 4-[4-(3,4-Dichloro-phenyl)-thiazol-2-yl]-4′-nitro-biphenyl-2-carboxylic acid] showed a half-maximal inhibitory concentration (IC50) of 4.1 µM.

The compound `N#Cc1ccc(Cl)c(-c2ccc(-c3nc(-c4ccc(Cl)c(Cl)c4)cs3)cc2C(=O)O)c1` [Example 108, 2′-Chloro-5′-cyano-4-[4-(3,4-dichloro-phenyl)-thiazol-2-yl]-biphenyl-2-carboxylic acid] displayed an IC50 of 3.5 µM.

`O=C(NC1CCOCC1)c1ccc(-c2ccc(-c3nc(-c4ccc(Cl)c(Cl)c4)cs3)cc2C(=O)O)cc1` [Example 63, 4-[4-(3,4-Dichloro-phenyl)-thiazol-2-yl]-4′-(tetrahydro-pyran-4-ylcarbamoyl)-biphenyl-2-carboxylic acid]: the half-maximal inhibitory concentration (IC50) was 5.7 µM.

Turning to `O=C(O)c1cc(-c2nc(-c3ccc(Br)cc3)cs2)ccc1-c1ccccc1[N+](=O)[O-]` [Example 27, 4-[4-(4-Bromo-phenyl)-thiazol-2-yl]-2′-nitro-biphenyl-2-carboxylic acid], the half-maximal inhibitory concentration (IC50) was 4 µM.

Compound `O=C(O)c1cc(-c2nc(-c3ccc(OC(F)F)cc3)cs2)ccc1-c1ccccc1[N+](=O)[O-]` [Example 3, 4-[4-(4-Difluoromethoxy-phenyl)-thiazol-2-yl]-2′-nitro-biphenyl-2-carboxylic acid] returned an IC50 of 9.9 µM.

Regarding `O=C(O)c1cc(-c2nc(-c3ccncc3)cs2)ccc1-c1ccccc1[N+](=O)[O-]` [Example 39, 2′-Nitro-4-(4-pyridin-4-yl-thiazol-2-yl)-biphenyl-2-carboxylic acid], the IC50 is > 80 µM.

In turn, `COc1cccc(CNC(=O)c2ccc(-c3ccc(-c4nc(-c5ccc(Cl)c(Cl)c5)cs4)cc3C(=O)O)cc2)c1` [Example 65, 4-[4-(3,4-Dichloro-phenyl)-thiazol-2-yl]-4′-(3-methoxy-benzylcarbamoyl)-biphenyl-2-carboxylic acid] had an IC50 of 1.3 µM.

As to `O=C(O)c1cc(-c2nc(-c3ccc(OC(F)(F)F)cc3)cs2)ccc1-c1ccccc1[N+](=O)[O-]` [Example 2, 2′-Nitro-4-[4-(4-trifluoromethoxy-phenyl)-thiazol-2-yl]-biphenyl-2-carboxylic acid], the IC50 came out at 2.6 µM.

In the case of `O=C(NCc1ccc(F)cc1)c1ccc(-c2ccc(-c3nc(-c4ccc(Cl)c(Cl)c4)cs3)cc2C(=O)O)cc1` [Example 72, 4-[4-(3,4-Dichloro-phenyl)-thiazol-2-yl]-4′-(4-fluoro-benzylcarbamoyl)-biphenyl-2-carboxylic acid], the half-maximal inhibitory concentration (IC50) came to 1.5 µM.

The compound `O=C(O)c1cc(-c2nc(-c3ccc(Cl)c(Cl)c3)cs2)ccc1-c1cc(F)ccc1F` [Example 131, 4-[4-(3,4-Dichloro-phenyl)-thiazol-2-yl]-2′,5′-difluoro-biphenyl-2-carboxylic acid] showed a half-maximal inhibitory concentration (IC50) of 1.8 µM.

In the case of `O=C(NC1CCOC1)c1ccc(-c2ccc(-c3nc(-c4ccc(Cl)c(Cl)c4)cs3)cc2C(=O)O)cc1` (stereo not shown) [Example 62, 4-[4-(3,4-Dichloro-phenyl)-thiazol-2-yl]-4′-(tetrahydro-furan-3-ylcarbamoyl)-biphenyl-2-carboxylic acid], the IC50 was 7.7 µM.

`O=C(NCc1ccccc1)c1ccc(-c2ccc(-c3nc(-c4ccc(Cl)c(Cl)c4)cs3)cc2C(=O)O)cc1` [Example 76, 4′-Benzylcarbamoyl-4-[4-(3,4-dichloro-phenyl)-thiazol-2-yl]-biphenyl-2-carboxylic acid]: the IC50 worked out at 2.3 µM.

Turning to `COc1ccc(-c2csc(-c3ccc(-c4ccccc4[N+](=O)[O-])c(C(=O)O)c3)n2)cc1` [Example 32, 4-[4-(4-Methoxy-phenyl)-thiazol-2-yl]-2′-nitro-biphenyl-2-carboxylic acid], the IC50 was determined as 8.3 µM.

Take `CN(C)CCCNC(=O)c1ccc(-c2ccc(-c3nc(-c4ccc(Cl)c(Cl)c4)cs3)cc2C(=O)O)cc1` [Example 48, 4-[4-(3,4-Dichloro-phenyl)-thiazol-2-yl]-4′-(3-dimethylamino-propylcarbamoyl)-biphenyl-2-carboxylic acid]: the IC50 is > 80 µM.

`O=Cc1ccccc1-c1ccc(-c2nc(-c3ccc(Cl)c(Cl)c3)cs2)cc1C(=O)O` [Example 123, 4-[4-(3,4-Dichloro-phenyl)-thiazol-2-yl]-2′-formyl-biphenyl-2-carboxylic acid] gave an IC50 of 5.5 µM.

Turning to `O=C(O)c1cc(-c2nc(-c3ccc(Cl)c(Cl)c3)cs2)ccc1-c1cncc(Cl)c1` [Example 102, 2-(5-Chloro-pyridin-3-yl)-5-[4-(3,4-dichloro-phenyl)-thiazol-2-yl]-benzoic acid], the half-maximal inhibitory concentration (IC50) worked out at 5.4 µM.

The compound `Cc1ccc(F)c(-c2ccc(-c3nc(-c4ccc(Cl)c(Cl)c4)cs3)cc2C(=O)O)c1Cl` [Example 139, 2′-Chloro-4-[4-(3,4-dichloro-phenyl)-thiazol-2-yl]-6′-fluoro-3′-methyl-biphenyl-2-carboxylic acid] yielded an IC50 of 1.6 µM.

`O=C(O)c1cc(-c2nc(-c3ccc(Cl)c(Cl)c3)cs2)ccc1-c1ccc(F)cc1Cl` [Example 134, 2′-Chloro-4-[4-(3,4-dichloro-phenyl)-thiazol-2-yl]-4′-fluoro-biphenyl-2-carboxylic acid] gave an IC50 of 1.4 µM.
